{"source": "paper PMC8343220", "about": "“The selectivity of α‐adrenoceptor agonists for the human α1A, α1B, and α1D‐adrenoceptors” (Pharmacology Research & Perspectives, 2021)", "key": {"[1]": {"system": "parental CHO cell line without any transfected receptors", "assay": "ERK1/2‐phosphorylation, parent CHO cells without transfected receptors", "type": "cell-based, Chinese hamster", "details": "CHO cells without transfected receptors; maximal response as % of PDBu (10μM) response; mean ± s.e.m."}, "human α1B‐adrenoceptor [2]": {"target": "T1, human α1B‐adrenoceptor (Homo sapiens, UniProt P35368)", "T1 construct": "expressed in transfected cells; host or cells: CHO-K1", "T1 sequence (P35368 1-520)": "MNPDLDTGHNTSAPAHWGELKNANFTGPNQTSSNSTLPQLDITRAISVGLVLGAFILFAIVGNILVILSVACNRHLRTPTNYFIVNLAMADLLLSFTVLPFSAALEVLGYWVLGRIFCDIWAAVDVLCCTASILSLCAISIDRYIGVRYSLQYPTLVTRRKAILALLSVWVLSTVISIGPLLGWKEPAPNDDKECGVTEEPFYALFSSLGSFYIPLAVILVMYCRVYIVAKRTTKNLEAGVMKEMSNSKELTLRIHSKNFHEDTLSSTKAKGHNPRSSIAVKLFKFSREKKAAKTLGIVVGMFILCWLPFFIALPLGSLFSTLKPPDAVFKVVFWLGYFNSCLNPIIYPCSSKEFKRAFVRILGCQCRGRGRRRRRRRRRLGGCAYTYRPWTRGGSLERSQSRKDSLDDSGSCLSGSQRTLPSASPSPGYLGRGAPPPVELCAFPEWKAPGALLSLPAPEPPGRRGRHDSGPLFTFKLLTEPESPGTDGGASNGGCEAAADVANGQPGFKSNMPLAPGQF", "assay": "^3H‐cAMP accumulation, CHO‐α1B cells", "type": "cell-based", "details": "CHO‐α1B cells; response at 100 µM ligand (no EC50 given)"}, "human α1A‐adrenoceptor [3]": {"target": "T2, human α1A‐adrenoceptor (Homo sapiens, UniProt P35348)", "T2 construct": "expressed in transfected cells; host or cells: CHO-K1", "T2 sequence (P35348 1-466)": "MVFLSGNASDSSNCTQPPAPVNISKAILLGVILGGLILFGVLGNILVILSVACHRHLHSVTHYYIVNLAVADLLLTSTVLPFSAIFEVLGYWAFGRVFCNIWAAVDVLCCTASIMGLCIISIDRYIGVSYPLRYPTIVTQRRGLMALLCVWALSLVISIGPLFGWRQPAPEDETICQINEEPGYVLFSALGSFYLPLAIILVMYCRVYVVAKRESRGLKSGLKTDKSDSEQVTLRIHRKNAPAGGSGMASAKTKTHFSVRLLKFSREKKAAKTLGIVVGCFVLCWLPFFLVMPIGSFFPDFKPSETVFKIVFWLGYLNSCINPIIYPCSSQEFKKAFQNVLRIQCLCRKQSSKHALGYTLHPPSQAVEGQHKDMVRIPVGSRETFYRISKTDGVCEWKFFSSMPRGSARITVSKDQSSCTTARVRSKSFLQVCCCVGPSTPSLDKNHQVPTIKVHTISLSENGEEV", "assay": "^3H‐prazosin whole‐cell radioligand binding, CHO‐α1A cells"}, "human α1A‐adrenoceptor [4]": {"target": "T2, human α1A‐adrenoceptor", "assay": "^3H‐cAMP accumulation in the presence of 10 μM forskolin, CHO‐α1A cells", "type": "cell-based"}, "[5]": {"system": "parental CHO cell line without any transfected receptors", "assay": "Forskolin‐stimulated cAMP accumulation, parent CHO cells without transfected receptors", "type": "cell-based, Chinese hamster", "details": "CHO cells without transfected receptors; in presence of forskolin"}, "human α1A‐adrenoceptor [6]": {"target": "T2, human α1A‐adrenoceptor", "assay": "Intracellular free calcium mobilization, CHO‐α1A cells", "type": "cell-based"}, "human α1B‐adrenoceptor [7]": {"target": "T1, human α1B‐adrenoceptor", "assay": "Intracellular free calcium mobilization, CHO‐α1B cells", "type": "cell-based"}, "[8]": {"target": "T3, human α1D‐adrenoceptor (full length) (Homo sapiens, UniProt P25100)", "T3 construct": "human α1D‐adrenoceptor (full length) were used; expressed in transfected cells; host or cells: CHO-K1", "T3 sequence (P25100 1-572)": "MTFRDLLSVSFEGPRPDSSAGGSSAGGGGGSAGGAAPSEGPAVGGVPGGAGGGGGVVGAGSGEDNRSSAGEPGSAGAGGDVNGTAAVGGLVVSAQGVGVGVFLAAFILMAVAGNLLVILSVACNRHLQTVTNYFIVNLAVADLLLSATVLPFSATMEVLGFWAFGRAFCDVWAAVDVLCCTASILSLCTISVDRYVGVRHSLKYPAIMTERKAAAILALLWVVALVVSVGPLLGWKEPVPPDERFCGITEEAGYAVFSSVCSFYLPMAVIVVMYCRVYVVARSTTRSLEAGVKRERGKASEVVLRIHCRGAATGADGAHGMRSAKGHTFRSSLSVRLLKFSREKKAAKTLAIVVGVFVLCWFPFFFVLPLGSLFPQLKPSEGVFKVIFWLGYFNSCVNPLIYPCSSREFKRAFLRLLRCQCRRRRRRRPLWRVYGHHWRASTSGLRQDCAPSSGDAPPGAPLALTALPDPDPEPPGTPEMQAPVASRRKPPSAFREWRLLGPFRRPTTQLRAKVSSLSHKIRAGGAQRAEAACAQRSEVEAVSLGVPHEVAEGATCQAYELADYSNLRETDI", "assay": "Intracellular free calcium mobilization, CHO‐α1D cells", "type": "cell-based"}, "human α1A‐adrenoceptor [9]": {"target": "T2, human α1A‐adrenoceptor", "assay": "ERK1/2‐phosphorylation (Surefire Alphascreen), CHO‐α1A cells", "type": "cell-based"}, "human α1A‐adrenoceptor [10]": {"target": "T2, human α1A‐adrenoceptor", "assay": "^3H‐cAMP accumulation, CHO‐α1A cells", "type": "cell-based", "details": "CHO‐α1A cells; response at 100 μM ligand, no EC50 obtained"}, "human α1B‐adrenoceptor [11]": {"target": "T1, human α1B‐adrenoceptor", "assay": "ERK1/2‐phosphorylation (Surefire Alphascreen), CHO‐α1B cells", "type": "cell-based"}, "[12]": {"target": "T3, human α1D‐adrenoceptor (full length)", "assay": "ERK1/2‐phosphorylation (Surefire Alphascreen), CHO‐α1D cells", "type": "cell-based"}, "[13]": {"system": "parental CHO cell line without any transfected receptors", "assay": "Intracellular calcium mobilization, parent CHO cells without transfected receptors", "type": "cell-based, Chinese hamster"}}}
{"smiles": "CNCC(O)c1ccc(O)cc1", "note": "(stereo not drawn) [Synephrine]", "values": [{"measurement": "ERK1/2-phosphorylation % PDBu", "setting": "[1]", "value": "No response"}, {"measurement": "cAMP accumulation % forskolin at 100 µM", "setting": "human α1B‐adrenoceptor [2]", "value": "23.2 ± 2.5", "unit": "%"}, {"measurement": "Kd", "setting": "human α1A‐adrenoceptor [3]", "value": 55, "unit": "µM"}, {"measurement": "EC50", "setting": "human α1A‐adrenoceptor [4]", "value": 7.08, "unit": "µM"}, {"measurement": "cAMP accumulation (in presence of forskolin) Log EC50", "setting": "[5]", "value": "No response"}, {"measurement": "EC50", "setting": "human α1A‐adrenoceptor [6]", "value": 0.219, "unit": "µM"}, {"measurement": "Intracellular calcium release % ionomycin", "setting": "human α1A‐adrenoceptor [6]", "value": "55.4 ± 1.9", "unit": "%"}, {"measurement": "Intracellular calcium release % ionomycin", "setting": "human α1B‐adrenoceptor [7]", "value": "57.5 ± 1.9", "unit": "%"}, {"measurement": "Intracellular calcium release % ionomycin", "setting": "[8]", "value": "16.3 ± 2.9", "unit": "%"}, {"measurement": "EC50", "setting": "human α1A‐adrenoceptor [9]", "value": 0.603, "unit": "µM"}, {"measurement": "ERK1/2‐phosphorylation % PDBu", "setting": "human α1A‐adrenoceptor [9]", "value": "87.4 ± 8.6", "unit": "%"}, {"measurement": "cAMP accumulation % forskolin at 100 µM", "setting": "human α1A‐adrenoceptor [10]", "value": "25.4 ± 3.4", "unit": "%"}, {"measurement": "ERK1/2‐phosphorylation % PDBu", "setting": "human α1B‐adrenoceptor [11]", "value": "95.1 ± 8.7", "unit": "%"}, {"measurement": "ERK1/2‐phosphorylation % PDBu", "setting": "[12]", "value": "14.5 ± 2.8", "unit": "%"}]}
{"smiles": "C[C@H](CCC(=O)O)C[C@H](C)C[C@H](C)C(=O)/C=C(\\O)[C@H](C)C[C@H](C)C/C=C/[C@@H](C)[C@@H](O)[C@@H](C)[C@@H](O)C[C@@H]1CC[C@@](C)([C@H]2CC[C@@](C)([C@@H](C)O)O2)O1", "note": "[Ionomycin]", "values": [{"measurement": "Calcium response fold over basal", "setting": "[13]", "value": "27.2 ± 1.2", "unit": "fold over basal"}]}
